In patent US10987363B2, “Fluticasone furoate in the treatment of COPD” (GLAXOSMITHKLINE INTELLECTUAL PROPERTY DEVELOPMENT LIMITED, priority 2014, dated 2021):

Columns and labels:
[1] = system: COPD patients; conditions: pre-specified analysis of ISOLDE, all patients; 500 mcg twice daily, 3 years; cited from earlier work
[2] = system: COPD patients; experiment: Re-analysis of ISOLDE 3-year clinical study: rate of decline of FEV1 by baseline blood eosinophil count; format: in vivo, human; conditions: 500 mcg twice daily
Source text: Methods: The results of ISOLDE (Burge P S et al BMJ 2000; 320:1297-303), a 3-year study of the effects of fluticasone propionate (FP) 500 mcg twice daily on rate of decline of FEV1 in well-characterised COPD patients were re-analysed by baseline blood eosinophil count (≥2%, <2%).

Which results are given for `CCC(=O)O[C@]1(C(=O)SCF)[C@H](C)C[C@H]2[C@@H]3C[C@H](F)C4=CC(=O)C=C[C@]4(C)[C@@]3(F)[C@@H](O)C[C@@]21C` [FP, fluticasone propionate]?
effect on the rate of decline of FEV1 vs. placebo [1]: no effect; difference in rate of decline of FEV1 vs. placebo ([2]; patients with eosinophil count <2%, 3 years): no difference; slowing of the rate of decline of lung function compared with placebo ([2]; patients with eosinophil count ≥2%, p=0.001): 38 mL per year
